# Assays:
# Format in all cases: binding
# ENPP1 = molecular target: T1, ENPP1 (Homo sapiens, UniProt P22413); experiment: ATPase profile (ATP acyl phosphate probe); conditions: ENPP1, SEQ ID NO: 76, ATP BS
# T1 construct: endogenous in cells; host or cells: A375 cell lysate
# [1] = test system: ACTA2, ACTB, ACTBL2, ACTC1, ACTG1; experiment: ATPase profile (ATP acyl phosphate probe); conditions: ACTBL2, ACTC1, ACTG1, SEQ ID NO: 24, ATP BS
# VCP = molecular target: T2, VCP (Homo sapiens, UniProt P55072); experiment: ATPase profile (ATP acyl phosphate probe)
# T2 construct: to get the native cell lysate; endogenous in cells; host or cells: A375 cell lysate
# TOP2A, TOP2B = experiment: ATPase profile (ATP acyl phosphate probe); conditions: SEQ ID NO: 202, ATP BS
# CPS1 = molecular target: T3, CPS1 (Homo sapiens, UniProt P31327); experiment: ATPase profile (ATP acyl phosphate probe); conditions: CPS1, SEQ ID NO: 64, labeling site Other
# T3 construct: endogenous in cells; host or cells: A375 cell lysate
# MCM4 = molecular target: T4, MCM4 (Homo sapiens, UniProt P33991); experiment: ATPase profile (ATP acyl phosphate probe); conditions: MCM4, SEQ ID NO: 118, ATP BS; read-out: Inhibition (%) by 1 μM Z36-MP5
# T4 construct: to get the native cell lysate; endogenous in cells; host or cells: A375
# NRK1 = molecular target: T5, NRK1 (Homo sapiens, UniProt Q9NWW6); experiment: ATPase profile (ATP acyl phosphate probe); conditions: NRK1, SEQ ID NO: 137, ATP BS
# T5 construct: to get the native cell lysate; endogenous in cells; host or cells: A375
# XRCC5 = molecular target: T6, XRCC5 (Homo sapiens, UniProt P13010); experiment: ATPase profile (ATP acyl phosphate probe); conditions: XRCC5, SEQ ID NO: 231, ATP BS
# T6 construct: to get the native cell lysate; endogenous in cells; host or cells: A375 cell lysate
# KARS = molecular target: T7, KARS (Homo sapiens, UniProt Q15046); experiment: ATPase profile (ATP acyl phosphate probe); conditions: SEQ ID NO: 112, ATP BS
# T7 construct: to get the native cell lysate; endogenous in cells; host or cells: A375
# HSP60 = molecular target: T8, HSP60 (Homo sapiens, UniProt P10809); experiment: ATPase profile (ATP acyl phosphate probe); conditions: HSP60, SEQ ID NO: 94, ATP BS
# T8 construct: to get the native cell lysate; endogenous in cells; host or cells: A375
# AARS = molecular target: T9, AARS (Homo sapiens, UniProt P49588); experiment: ATPase profile (ATP acyl phosphate probe); conditions: SEQ ID NO: 1, ATP BS
# T9 construct: to get the native cell lysate; host or cells: A375 cell lysate
# GSS = molecular target: T10, GSS (Homo sapiens, UniProt P48637); experiment: ATPase profile (ATP acyl phosphate probe)
# T10 construct: endogenous in cells; host or cells: A375 cell lysate
# CNP = molecular target: T11, CNP (Homo sapiens, UniProt P09543); experiment: ATPase profile (ATP acyl phosphate probe); conditions: SEQ ID NO: 61, ATP BS
# T11 construct: endogenous in cells; host or cells: A375 cell lysate
# RFC1 = molecular target: T12, RFC1 (Homo sapiens, UniProt P35251); experiment: ATPase profile (ATP acyl phosphate probe); conditions: RFC1, SEQ ID NO: 183, ATP BS
# T12 construct: to get the native cell lysate; endogenous in cells; host or cells: A375 cell lysate
# RFC2 = molecular target: T13, RFC2 (Homo sapiens, UniProt P35250); experiment: ATPase profile (ATP acyl phosphate probe); conditions: RFC2, SEQ ID NO: 184, ATP BS
# T13 construct: to get the native cell lysate; endogenous in cells; host or cells: A375 cell lysate
# CCT4 = molecular target: T14, CCT4 (Homo sapiens, UniProt P50991); experiment: ATPase profile (ATP acyl phosphate probe); conditions: CCT4, SEQ ID NO: 53, ATP BS
# T14 construct: to get the native cell lysate; host or cells: A375 cell lysate
# XRCC6 = molecular target: T15, XRCC6 (Homo sapiens, UniProt P12956); experiment: ATPase profile (ATP acyl phosphate probe); conditions: XRCC6, SEQ ID NO: 232, ATP BS
# T15 construct: to get the native cell lysate; endogenous in cells; host or cells: A375 cell lysate
# ABCD4 = molecular target: T16, ABCD4 (Homo sapiens, UniProt O14678); experiment: ATPase profile (ATP acyl phosphate probe); conditions: ABCD4, SEQ ID NO: 14, ATP BS
# T16 construct: to get the native cell lysate; host or cells: A375 cell lysate
# LIG1 = molecular target: T17, LIG1 (Homo sapiens, UniProt P18858); experiment: ATPase profile (ATP acyl phosphate probe); conditions: LIG1, SEQ ID NO: 114, ATP BS
# T17 construct: to get the native cell lysate; endogenous in cells; host or cells: A375
# ASS1 = molecular target: T18, ASS1 (Homo sapiens, UniProt P00966); experiment: ATPase profile (ATP acyl phosphate probe); conditions: ASS1, SEQ ID NO: 43, ATP BS
# T18 construct: to get the native cell lysate; host or cells: A375 cell lysate
# PAICS = molecular target: T19, PAICS (Homo sapiens, UniProt P22234); experiment: ATPase profile (ATP acyl phosphate probe); conditions: SEQ ID NO: 151, ATP BS
# T19 construct: to get the native cell lysate; endogenous in cells; host or cells: A375
# PRPS1 = molecular target: T20, PRPS1 (Homo sapiens, UniProt P60891); experiment: ATPase profile (ATP acyl phosphate probe); conditions: PRPS1, SEQ ID NO: 171, ATP BS
# T20 construct: endogenous in cells; host or cells: A375 cell lysate
# ABCE1 = molecular target: T21, ABCE1 (Homo sapiens, UniProt P61221); experiment: ATPase profile (ATP acyl phosphate probe); conditions: ABCE1, SEQ ID NO: 15, ATP BS
# T21 construct: to get the native cell lysate; host or cells: A375 cell lysate
# FDPS = molecular target: T22, FDPS (Homo sapiens, UniProt P14324); experiment: ATPase profile (ATP acyl phosphate probe); conditions: SEQ ID NO: 78, ATP BS
# T22 construct: endogenous in cells; host or cells: A375 cell lysate
# QARS = molecular target: T23, QARS (Homo sapiens, UniProt P47897); experiment: ATPase profile (ATP acyl phosphate probe); conditions: SEQ ID NO: 180, ATP BS
# T23 construct: to get the native cell lysate; endogenous in cells; host or cells: A375 cell lysate
# CCT5 = molecular target: T24, CCT5 (Homo sapiens, UniProt P48643); experiment: ATPase profile (ATP acyl phosphate probe); conditions: CCT5, SEQ ID NO: 54, ATP BS
# T24 construct: to get the native cell lysate; host or cells: A375 cell lysate
# UPF1 = molecular target: T25, UPF1 (Homo sapiens, UniProt Q92900); experiment: ATPase profile (ATP acyl phosphate probe)
# T25 construct: to get the native cell lysate; endogenous in cells; host or cells: A375 cell lysate
# SARS = SARS (Homo sapiens, UniProt P49591); conditions: SEQ ID NO: 190, ATP BS
# TRAP1 = molecular target: T26, TRAP1 (Homo sapiens, UniProt Q12931); experiment: ATPase profile (ATP acyl phosphate probe)
# T26 construct: to get the native cell lysate; endogenous in cells; host or cells: A375 cell lysate
# UBA5 = molecular target: T27, UBA5 (Homo sapiens, UniProt Q9GZZ9); experiment: ATPase profile (ATP acyl phosphate probe); conditions: UBA5, SEQ ID NO: 221, ATP BS
# T27 construct: to get the native cell lysate; endogenous in cells; host or cells: A375 cell lysate
# T2 sequence (P55072 2-806 limits assumed): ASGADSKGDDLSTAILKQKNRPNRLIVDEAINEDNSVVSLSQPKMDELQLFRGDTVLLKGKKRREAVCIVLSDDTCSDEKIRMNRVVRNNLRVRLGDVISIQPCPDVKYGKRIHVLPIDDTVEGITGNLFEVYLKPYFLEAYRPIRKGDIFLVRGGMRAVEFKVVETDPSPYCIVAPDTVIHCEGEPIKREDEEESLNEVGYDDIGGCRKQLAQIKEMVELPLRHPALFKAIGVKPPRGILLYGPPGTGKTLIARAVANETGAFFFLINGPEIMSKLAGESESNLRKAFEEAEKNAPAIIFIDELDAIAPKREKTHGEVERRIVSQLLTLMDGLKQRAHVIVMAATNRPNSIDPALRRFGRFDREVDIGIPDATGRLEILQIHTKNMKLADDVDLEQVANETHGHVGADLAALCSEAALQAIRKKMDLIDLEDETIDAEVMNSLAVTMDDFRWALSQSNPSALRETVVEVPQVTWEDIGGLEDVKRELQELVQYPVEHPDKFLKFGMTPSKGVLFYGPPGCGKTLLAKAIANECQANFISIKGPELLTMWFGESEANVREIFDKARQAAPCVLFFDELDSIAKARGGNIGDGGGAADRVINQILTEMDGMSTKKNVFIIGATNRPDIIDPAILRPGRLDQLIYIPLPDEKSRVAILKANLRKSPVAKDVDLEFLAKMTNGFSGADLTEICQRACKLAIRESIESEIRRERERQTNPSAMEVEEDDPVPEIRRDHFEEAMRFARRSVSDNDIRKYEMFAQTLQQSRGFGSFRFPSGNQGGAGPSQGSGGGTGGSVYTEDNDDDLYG
# T10 sequence (P48637 whole entry): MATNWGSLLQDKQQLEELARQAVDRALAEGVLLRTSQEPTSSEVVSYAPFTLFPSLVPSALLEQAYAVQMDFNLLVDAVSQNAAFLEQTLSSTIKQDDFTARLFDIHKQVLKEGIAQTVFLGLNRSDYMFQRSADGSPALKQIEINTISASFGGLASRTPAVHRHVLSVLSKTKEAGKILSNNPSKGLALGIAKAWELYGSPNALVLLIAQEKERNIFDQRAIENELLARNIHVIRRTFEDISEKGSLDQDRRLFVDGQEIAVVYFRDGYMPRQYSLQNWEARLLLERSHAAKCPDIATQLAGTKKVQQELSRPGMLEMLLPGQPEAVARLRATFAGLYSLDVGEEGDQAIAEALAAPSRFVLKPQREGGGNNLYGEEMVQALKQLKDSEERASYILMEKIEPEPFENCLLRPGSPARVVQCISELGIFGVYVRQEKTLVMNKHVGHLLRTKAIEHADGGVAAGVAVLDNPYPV
# T25 sequence (Q92900 whole entry): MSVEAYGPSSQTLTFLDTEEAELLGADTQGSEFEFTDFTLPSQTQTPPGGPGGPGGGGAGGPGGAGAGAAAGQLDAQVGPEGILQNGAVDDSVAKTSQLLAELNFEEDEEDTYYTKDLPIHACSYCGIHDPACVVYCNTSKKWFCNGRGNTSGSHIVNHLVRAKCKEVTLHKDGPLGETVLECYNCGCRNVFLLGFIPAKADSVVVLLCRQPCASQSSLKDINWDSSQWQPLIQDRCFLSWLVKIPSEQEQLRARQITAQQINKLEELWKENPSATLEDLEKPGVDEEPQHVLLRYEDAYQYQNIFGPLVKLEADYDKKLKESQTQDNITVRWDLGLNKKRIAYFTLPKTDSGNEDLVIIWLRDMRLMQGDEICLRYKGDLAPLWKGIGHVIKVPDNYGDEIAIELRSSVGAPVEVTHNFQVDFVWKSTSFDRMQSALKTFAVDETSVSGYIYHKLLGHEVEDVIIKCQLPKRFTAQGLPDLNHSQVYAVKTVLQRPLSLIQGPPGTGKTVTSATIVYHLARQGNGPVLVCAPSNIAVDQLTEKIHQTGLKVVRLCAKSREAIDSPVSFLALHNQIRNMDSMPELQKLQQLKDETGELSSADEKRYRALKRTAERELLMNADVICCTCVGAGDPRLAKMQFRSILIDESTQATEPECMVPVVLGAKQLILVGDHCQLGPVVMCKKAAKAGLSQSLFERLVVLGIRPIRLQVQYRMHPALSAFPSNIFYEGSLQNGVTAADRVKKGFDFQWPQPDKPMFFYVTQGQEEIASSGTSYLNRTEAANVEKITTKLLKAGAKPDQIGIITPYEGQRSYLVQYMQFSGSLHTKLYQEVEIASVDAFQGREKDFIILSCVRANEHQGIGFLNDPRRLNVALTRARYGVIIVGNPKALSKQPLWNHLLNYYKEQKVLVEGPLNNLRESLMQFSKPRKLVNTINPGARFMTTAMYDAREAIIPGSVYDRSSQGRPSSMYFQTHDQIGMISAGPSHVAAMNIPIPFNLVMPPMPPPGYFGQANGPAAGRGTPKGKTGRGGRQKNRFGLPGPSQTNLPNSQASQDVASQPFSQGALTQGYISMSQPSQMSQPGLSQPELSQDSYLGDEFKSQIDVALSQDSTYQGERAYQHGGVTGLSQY
# T26 sequence (Q12931 60-704): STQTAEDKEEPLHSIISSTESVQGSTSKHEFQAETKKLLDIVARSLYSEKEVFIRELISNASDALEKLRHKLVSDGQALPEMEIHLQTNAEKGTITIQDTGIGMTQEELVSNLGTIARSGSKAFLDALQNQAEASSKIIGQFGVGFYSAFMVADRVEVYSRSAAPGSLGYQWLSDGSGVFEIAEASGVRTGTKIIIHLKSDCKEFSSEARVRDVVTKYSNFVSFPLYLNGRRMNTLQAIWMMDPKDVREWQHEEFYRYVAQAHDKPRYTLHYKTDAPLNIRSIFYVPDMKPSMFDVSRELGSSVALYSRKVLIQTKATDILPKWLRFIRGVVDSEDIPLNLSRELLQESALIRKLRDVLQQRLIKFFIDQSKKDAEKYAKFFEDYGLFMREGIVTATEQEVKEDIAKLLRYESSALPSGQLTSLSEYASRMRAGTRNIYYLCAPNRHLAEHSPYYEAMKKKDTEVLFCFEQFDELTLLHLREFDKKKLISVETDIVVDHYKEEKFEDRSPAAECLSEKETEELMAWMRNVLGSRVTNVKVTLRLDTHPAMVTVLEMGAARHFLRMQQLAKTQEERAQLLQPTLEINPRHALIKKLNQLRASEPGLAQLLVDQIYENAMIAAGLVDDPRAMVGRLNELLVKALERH
# T23 sequence (P47897 whole entry): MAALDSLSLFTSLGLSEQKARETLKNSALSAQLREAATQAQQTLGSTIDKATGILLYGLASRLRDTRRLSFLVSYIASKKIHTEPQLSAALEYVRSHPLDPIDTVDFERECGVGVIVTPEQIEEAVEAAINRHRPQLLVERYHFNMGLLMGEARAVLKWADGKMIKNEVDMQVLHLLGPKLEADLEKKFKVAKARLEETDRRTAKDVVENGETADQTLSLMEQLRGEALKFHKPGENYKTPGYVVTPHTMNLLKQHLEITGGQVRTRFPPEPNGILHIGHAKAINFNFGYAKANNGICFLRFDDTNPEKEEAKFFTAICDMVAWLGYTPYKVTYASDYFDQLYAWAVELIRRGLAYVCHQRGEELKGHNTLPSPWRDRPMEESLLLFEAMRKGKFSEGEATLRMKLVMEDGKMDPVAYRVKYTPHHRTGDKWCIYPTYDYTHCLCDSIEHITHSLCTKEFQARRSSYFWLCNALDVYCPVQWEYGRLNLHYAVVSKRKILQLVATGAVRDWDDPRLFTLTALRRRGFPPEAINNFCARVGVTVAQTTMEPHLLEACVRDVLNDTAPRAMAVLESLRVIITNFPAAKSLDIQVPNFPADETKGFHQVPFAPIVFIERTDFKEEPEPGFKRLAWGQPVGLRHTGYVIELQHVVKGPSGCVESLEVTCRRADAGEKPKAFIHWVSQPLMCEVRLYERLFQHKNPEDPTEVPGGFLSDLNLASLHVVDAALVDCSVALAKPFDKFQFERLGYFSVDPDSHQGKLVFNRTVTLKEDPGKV
# T19 sequence (P22234 whole entry): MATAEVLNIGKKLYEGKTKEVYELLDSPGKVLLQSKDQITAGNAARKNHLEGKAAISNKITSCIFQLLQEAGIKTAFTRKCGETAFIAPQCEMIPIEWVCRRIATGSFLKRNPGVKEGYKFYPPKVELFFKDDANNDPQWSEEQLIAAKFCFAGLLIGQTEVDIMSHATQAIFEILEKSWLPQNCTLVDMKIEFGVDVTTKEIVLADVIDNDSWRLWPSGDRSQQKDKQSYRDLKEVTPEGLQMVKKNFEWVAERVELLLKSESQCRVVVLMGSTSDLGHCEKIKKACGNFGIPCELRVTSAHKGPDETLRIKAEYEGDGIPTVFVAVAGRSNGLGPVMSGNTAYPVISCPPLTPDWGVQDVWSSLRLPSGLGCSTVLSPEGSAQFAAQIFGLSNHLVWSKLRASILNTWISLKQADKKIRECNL
# T16 sequence (O14678 whole entry): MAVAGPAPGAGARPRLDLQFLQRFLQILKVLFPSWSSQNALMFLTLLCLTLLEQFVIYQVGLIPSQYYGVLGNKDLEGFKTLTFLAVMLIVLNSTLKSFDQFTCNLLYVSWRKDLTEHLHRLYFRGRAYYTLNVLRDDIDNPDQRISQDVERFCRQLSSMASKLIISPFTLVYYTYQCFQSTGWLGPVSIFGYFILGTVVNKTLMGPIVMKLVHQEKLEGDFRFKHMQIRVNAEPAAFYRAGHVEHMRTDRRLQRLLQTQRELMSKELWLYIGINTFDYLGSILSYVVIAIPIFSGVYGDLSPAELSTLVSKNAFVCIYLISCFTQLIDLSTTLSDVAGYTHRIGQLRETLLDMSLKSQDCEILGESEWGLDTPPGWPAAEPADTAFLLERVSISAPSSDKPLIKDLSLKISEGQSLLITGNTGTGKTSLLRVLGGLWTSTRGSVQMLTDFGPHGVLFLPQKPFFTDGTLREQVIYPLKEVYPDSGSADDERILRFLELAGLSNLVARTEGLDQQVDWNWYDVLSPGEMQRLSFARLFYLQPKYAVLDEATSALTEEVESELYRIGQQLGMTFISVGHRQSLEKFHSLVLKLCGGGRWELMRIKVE
smiles,measurement,setting,value
"Cn1c(=O)[nH]c2ccc(-c3cccc(C(=O)NC4CCn5ccnc5C4)c3)cc21 (stereo not drawn) [Z36-MP5, 3-(3-methyl-2-oxo-2,3-dihydro-1H-benzo[d]imidazol-5-yl)-N-(5,6,7,8-tetrahydroimidazo[1,2-a]pyridin-7-yl)benzamide]",Inhibition (%) by 1 μM Z36-MP5,ENPP1,8.04%
same,Inhibition (%) by 1 μM Z36-MP5,[1],−15.29%
same,Inhibition (%) by 1 μM Z36-MP5,"VCP; SEQ ID NO: 225, ATP BS",−8.02%
same,Inhibition (%) by 1 μM Z36-MP5,"VCP; SEQ ID NO: 226, ATP BS",−2.36%
same,Inhibition (%) by 1 μM Z36-MP5,"VCP; SEQ ID NO: 227, ATP BS",−7.20%
same,Inhibition (%) by 1 μM Z36-MP5,"VCP; SEQ ID NO: 228, ATP BS",7.80%
same,Inhibition (%) by 1 μM Z36-MP5,"TOP2A, TOP2B",11.93%
same,Inhibition (%) by 1 μM Z36-MP5,CPS1,1.16%
same,inhibition at 1 µM,MCM4,4.98%
same,Inhibition (%) by 1 μM Z36-MP5,NRK1,0.34%
same,Inhibition (%) by 1 μM Z36-MP5,XRCC5,2.24%
same,Inhibition (%) by 1 μM Z36-MP5,KARS,2.22%
same,Inhibition (%) by 1 μM Z36-MP5,HSP60,11.39%
same,Inhibition (%) by 1 μM Z36-MP5,AARS,−29.97%
same,Inhibition (%) by 1 μM Z36-MP5,"GSS; SEQ ID NO: 87, ATP BS",−5.02%
same,Inhibition (%) by 1 μM Z36-MP5,"GSS; SEQ ID NO: 88, ATP BS",7.54%
same,Inhibition (%) by 1 μM Z36-MP5,CNP,−17.28%
same,Inhibition (%) by 1 μM Z36-MP5,RFC1,−12.52%
same,Inhibition (%) by 1 μM Z36-MP5,RFC2,1.52%
same,Inhibition (%) by 1 μM Z36-MP5,CCT4,11.95%
same,Inhibition (%) by 1 μM Z36-MP5,XRCC6,10.61%
same,Inhibition (%) by 1 μM Z36-MP5,ABCD4,11.24%
same,Inhibition (%) by 1 μM Z36-MP5,LIG1,−7.76%
same,Inhibition (%) by 1 μM Z36-MP5,ASS1,0.53%
same,Inhibition (%) by 1 μM Z36-MP5,PAICS,19.51%
same,Inhibition (%) by 1 μM Z36-MP5,PRPS1,−22.26%
same,Inhibition (%) by 1 μM Z36-MP5,ABCE1,−4.76%
same,Inhibition (%) by 1 μM Z36-MP5,FDPS,29.13%
same,Inhibition (%) by 1 μM Z36-MP5,QARS,−7.77%
same,Inhibition (%) by 1 μM Z36-MP5,CCT5,−2.48%
same,Inhibition (%) by 1 μM Z36-MP5,"UPF1; UPF1, SEQ ID NO: 223, ATP BS",−1.93%
same,Inhibition (%) by 1 μM Z36-MP5,"UPF1; UPF1, SEQ ID NO: 224, ATP BS",−3.51%
same,Inhibition (%) by 1 μM Z36-MP5,SARS,3.57%
same,Inhibition (%) by 1 μM Z36-MP5,"TRAP1; TRAP1, SEQ ID NO: 209, ATP BS",−10.78%
same,Inhibition (%) by 1 μM Z36-MP5,"TRAP1; TRAP1, SEQ ID NO: 210, ATP BS",−11.57%
same,Inhibition (%) by 1 μM Z36-MP5,UBA5,−12.85%

# — patent US12268674B2, “Mi-2β inhibitor as an immunotherapy agent” (BioVentures, LLC, priority 2021, dated 2025)
